Like-named read-outs stand apart in the source and are kept apart here.
What was measured:
[1] = system: southern root-knot nematode (Meloidogyne incognita); experiment: Meloidogyne incognita test (sand, lettuce, acetone solvent, 14 days); assay type: in vivo; settings: application rate 20 ppm, after 14 days
Outline: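 Active ingredient in acetone diluted with water, added to sand with nematode egg/larvae suspension and lettuce seeds. Efficacy scored after 14 days from root gall formation (100% = no galls; 0% = as untreated control).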

[2] = log P by reversed-phase HPLC analogously to OECD Guideline 117; assay type: physicochemical; settings: for LogP[a] / chromatographic logP: [a] acidic range; for LogP[b]: [b] neutral range, pH 7.8, ammonium hydrogencarbonate/acetonitrile; for chromatographic logP: reversed-phase C18 HPLC column
Outline: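 Retention on reversed-phase C18 HPLC (LC-MS), acidic runs at pH 2.7 with formic acid or trifluoroacetic acid/acetonitrile gradients, neutral runs at pH 7.8 with 0.001 molar ammonium hydrogencarbonate/acetonitrile. log P obtained by linear interpolation of retention times against unbranched alkan-2-ones (C3–C16) of known log P.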

[3] = system: greenhouse red spider mite (Tetranychus urticae); experiment: Tetranychus urticae spray test, OP-resistant (bean plants); assay type: in vivo; settings: application rate 20 ppm, after 7 days
Protocol: Tetranychus urticae—Spray Test, OP-Resistant
(§1) Solvent: 7 parts by weight of dimethylformamide
(§2) Emulsifier: alkylaryl polyglycol ether
(§3) To produce an appropriate active ingredient formulation, 1 part by weight of active ingredient is dissolved using the specified parts by weight of solvent and made up with water containing an emulsifier concentration of 1000 ppm until the desired concentration is attained. To produce further test concentrations, the preparation is diluted with emulsifier-containing water. If the addition of ammonium salts or/and penetrants is required, these are each added in a concentration of 1000 ppm to the formulation solution.
Bean plants (Phaseolus vulgaris) heavily infested by all stages of the greenhouse red spider mite (Tetranychus urticae) are treated by spraying with the active ingredient formulation in the desired concentration.
After 7 days, the efficacy in % is determined. 100% means that all the spider mites have been killed; 0% means that none of the spider mites have been killed.

[4] = system: larvae of the mustard beetle (Phaedon cochleariae); experiment: Phaedon cochleariae spray test; assay type: in vivo; settings: application rate 500 g/ha, after 7 days
Protocol: Phaedon cochleariae—Spray Test
Solvent: 78.0 parts by weight of acetone • • 1.5 parts by weight of dimethylformamide
as §2
as §3, with “water.” for “water. If the addition of ammonium salts or/and penetrants is required, these are each added in a concentration of 1000 ppm to the formulation solution.”
Discs of Chinese cabbage leaves (Brassica pekinensis) are sprayed with an active ingredient formulation of the desired concentration and, after drying, populated with larvae of the mustard beetle (Phaedon cochleariae).
After 7 days, the efficacy in % is determined. 100% means that all the beetle larvae have been killed; 0% means that no beetle larvae have been killed.

[5] = system: southern root-knot nematode (Meloidogyne incognita); experiment: Meloidogyne incognita test (soil drench, lettuce, 21 days); assay type: in vivo; settings: application rate 8 ppm, after 21 days
Protocol: Meloidogyne incognita Test
as §1
Emulsifier: 2.5 parts by weight of alkylaryl polyglycol ether
To produce an appropriate active ingredient formulation, 1 part by weight of active ingredient is mixed with the stated amounts of solvent and emulsifier, and the concentrate is diluted with water to the desired concentration, it being necessary to include the volume of soil which is drenched in the calculation. It should be noted that a concentration of 20 ppm of emulsifier in the soil is not exceeded. To produce further test concentrations, water is used for dilution.
Pots filled with soil (loamy sand) are watered with the active ingredient solution. An egg/larvae suspension of the southern root-knot nematode (Meloidogyne incognita) is added, lettuce seeds are scattered over the surface of the soil, and they are covered over with quartz sand. The lettuce seeds germinate and the plants develop. The galls develop on the roots
After 21 days, the nematicidal efficacy in % is determined by the formation of galls. 100% means that no galls have been found; 0% means that the number of galls on the treated plants corresponds to the untreated control.

[6] = system: engorged adult female cattle ticks (Boophilus microplus); experiment: Boophilus microplus injection test; assay type: in vivo; settings: application rate 20 μg/animal, assessed after 7 days
Protocol: Boophilus microplus—Injection Test
Solvent: dimethyl sulphoxide
To produce an appropriate active ingredient formulation, 10 mg of active ingredient are mixed with 0.5 ml of solvent and the concentrate is diluted with solvent to the desired concentration.
1 μl of the active ingredient solution is injected into the abdomen of 5 engorged adult female cattle ticks (Boophilus microplus). The animals are transferred into dishes and kept in a climate-controlled room.
The efficacy is assessed after 7 days by laying of fertile eggs. Eggs which are not visibly fertile are stored in a climate-controlled cabinet until the larvae hatch after about 42 days. An efficacy of 100% means that none of the ticks has laid any fertile eggs; 0% means that all the eggs are fertile.

[7] = system: greenhouse red spider mite (Tetranychus urticae); experiment: Tetranychus urticae spray test, OP-resistant (bean leaf discs); assay type: in vivo; settings: after 6 days
Outline: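 Compound dissolved in acetone/DMF and diluted in water with 1000 ppm alkylaryl polyglycol ether emulsifier, then sprayed on bean leaf discs infested with all stages of OP-resistant T. urticae. Mortality in % scored after 6 days (100% = all mites killed).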

[8] = system: adult cat fleas (Ctenocephalides felis); experiment: Ctenocephalides felis in vitro contact test with adult cat fleas; assay type: in vivo; settings: application rate 5 μg/cm^2 (=500 g/ha), after 48 h
Protocol: Ctenocephalides felis—In Vitro Contact Tests with Adult Cat Fleas
For the coating of the test tubes, 9 mg of active ingredient are first dissolved in 1 ml of acetone p.a. and then diluted to the desired concentration with acetone p.a. 250 μl of the solution are distributed homogeneously on the inner walls and base of a 25 ml test tube by turning and rocking on an orbital shaker (rocking rotation at 30 rpm for 2 h). With 900 ppm active ingredient solution and internal surface 44.7 cm^2, given homogeneous distribution, an area-based dose of 5 μg/cm^2 is achieved.
After the solvent has been evaporated off, the tubes are populated with 5-10 adult cat fleas (Ctenocephalides felis), sealed with a perforated plastic lid and incubated in a horizontal position at room temperature and ambient humidity. After 48 h, the efficacy is determined. To this end, the test tubes are stood upright and the fleas are knocked to the base of the tube. Fleas which remain motionless at the base or move in an uncoordinated manner are considered to be dead or moribund.
100% efficacy means that all the fleas were dead or moribund. 0% efficacy means that no fleas were harmed.

[9] = system: green peach aphid (Myzus persicae); experiment: Myzus persicae spray test (bell pepper plants); assay type: in vivo; settings: application rate 20 ppm, after 6 days
Protocol: Myzus persicae—Spray Test
as §1, §2, §3
Bell pepper plants (Capsicum annuum) heavily infested by the green peach aphid (Myzus persicae) are treated by spraying with the active ingredient formulation in the desired concentration.
After 6 days, the kill in % is determined. 100% means that all the aphids have been killed; 0% means that no aphids have been killed.

[10] = pH 2.7, formic acid (or trifluoroacetic acid)/acetonitrile

| Structure (SMILES) | nematicidal efficacy (formation of galls) [1] [%] | LogP[a] [2, 10] | LogP[b] [2] | efficacy (spider mites killed) [3] [%] | efficacy (beetle larvae killed) [4] [%] | nematicidal efficacy (formation of galls) [5] [%] | efficacy (no fertile eggs laid) [6] [%] | also measured |
| --- | --- | --- | --- | --- | --- | --- | --- | --- |
| Cc1cc(F)c(-n2ccc(=O)n(CC(F)(F)F)c2=O)cc1[S+]([O-])CC(F)(F)F (racemic) [compound 60] | 100 | 2.31 | 2.34 | 100 | 100 |  |  |  |
| Cc1cc(F)c(-n2ncc(=O)n(CC(F)(F)F)c2=O)cc1[S+]([O-])CC(F)(F)F (single isomer, unassigned) [compound 50] |  | 2.62 | 2.57 | 100 |  | 99 |  |  |
| Cc1cc(F)c(-n2ncc(=O)n(C)c2=O)cc1[S+]([O-])CC(F)(F)F (single isomer, unassigned; (+)) [Ex. No. 29, (+)-2-[2-fluoro-4-methyl-5-(2,2,2-trifluoroethylsulphinyl)phenyl]-4-methyl-1,2,4-triazine-3,5-dione] |  | 1.95 | 1.9 | 100 |  | 100 | 100 |  |
| Cc1cc(F)c(-n2ncc(=O)n(C)c2=O)cc1[S+]([O-])CC(F)(F)F (centres unmarked) [Ex. No. 2, 2-{2-Fluoro-4-methyl-5-[(2,2,2-trifluoroethyl)sulphinyl]phenyl}-4-methyl-1,2,4-triazine-3,5(2H,4H)-dione] |  |  |  |  |  |  | 100 | pest or weed control at 20 ppm ([1]; Meloidogyne incognita, 336 h, read-out: nematicidal efficacy (formation of galls)): 90%; chromatographic logP ([2]; pH 2.7, running text, pH 2.7, read-out: log P[a]): 1.94; chromatographic logP ([2]; pH 2.7, table column, pH 2.7, formic acid (or trifluoroacetic acid)/acetonitrile, read-out: LogP[a]): 1.94; pest or weed control at 500 g/ha ([7]; Tetranychus urticae, foliar, 144 h, application rate 500 g/ha, read-out: efficacy (spider mites killed)): 90%; efficacy (fleas dead or moribund) [8]: 100% |
| Cc1cc(F)c(-n2ncc(=O)n(CC(F)(F)F)c2=O)cc1SCC(F)(F)F [compound 10] | 100 | 3.65 |  |  | 83 |  | 100 | efficacy (spider mites killed) ([7]; application rate 500 g/ha): 90% |
| Cn1c(=O)cnn(-c2ccc(Cl)c(SCC(F)(F)F)c2)c1=O [compound 31] |  | 3 | 2.91 |  |  |  |  | efficacy (spider mites killed) ([7]; application rate 100 g/ha): 100%; efficacy (kill of aphids) [9]: 97% |

Reference: patent publication US9783509B2, “Six-membered C-N-linked aryl sulfide derivatives and aryl sulfoxide derivatives as pest conrol agents” (BAYER CROPSCIENCE AKTIENGESELLSCHAFT, priority 2013, dated 2017)
